Experimental data from patent US20120263784A1, “EMERGENCY CONTRACEPTIVE” (LYKA LABS LIMITED, priority 2009, published 2012).

What was measured:
[1] = in vivo; details: rat, po, 10 ug
Protocol: Size of the drug particles and liposomes in all the formulations was kept between 10-15 μm, as the particles with 10-20 μm are all deposited in the nasal cavity, whereas particles smaller than 1 μm pass with inspired air into the lungs.
Suspension containing 10-μg levonorgestrel was administered intranasally in three different group of rats.
Blood samples were collected at specific time points and plasma levonorgestrel concentrations were estimated. The drug plasma concentration at each sampling time point were plotted against time in hr.
The mucociliary clearance under normal conditions rapidly clears the applied material since there is a little time of contact between the drug and the mucosa. […] CS acts by opening tight junction between epithelial cells.

[2] = in vivo; details: rat, po
Protocol: Similarly, 10-μg of LN suspension was administered orally. Blood samples were collected at specific time points and plasma LN concentrations were estimated. The drug plasma concentration at each sampling time points were plotted against time in hr.
Various pharmacokinetic parameters (Cmax, Tmax and t1/2) were determined from drug plasma concentration-time curve. The area under the plasma level curve was calculated by the trapezoidal rule.

- Cmax [1]: 14.4 ng/mL
- Tmax [1]: 2.1 h
- half-life [1]: 16.9 h
- Cmax [2]: 14.4 ng/mL
- half-life [2]: 16.9 h
SMILES: C#C[C@]1(O)CC[C@H]2[C@@H]3CCC4=CC(=O)CC[C@@H]4[C@H]3CC[C@@]21CC [levonorgestrel]
